Assay results taken from paper PMC5785474, “Application of Sustainable Natural Resources in Agriculture: Acaricidal and Enzyme Inhibitory Activities of Naphthoquinones and Their Analogs against Psoroptes cuniculi” (Scientific Reports, 2018).

Target: acetylcholinesterase (AChE)
Assay: AChE activity in crude mite homogenate supernatant, acetylthiocholine/DTNB assay at […] nm
Type: biochemical, Psoroptes cuniculi

SMILES	IC50 (ppm)
O=C1C=CC(=O)c2c(O)cccc21 [compound 1, Juglone]	14.81 ppm
CC1=CC(=O)c2c(O)cccc2C1=O [compound 2, Plumbagin]	29.87 ppm
